Molecules are shown by their SMILES.

One assay deals with T1, human APJ receptor (Homo sapiens, UniProt P35414).
T1 construct: expressed in transfected cells; host or cells: HEK293
T1 sequence (P35414 1-380): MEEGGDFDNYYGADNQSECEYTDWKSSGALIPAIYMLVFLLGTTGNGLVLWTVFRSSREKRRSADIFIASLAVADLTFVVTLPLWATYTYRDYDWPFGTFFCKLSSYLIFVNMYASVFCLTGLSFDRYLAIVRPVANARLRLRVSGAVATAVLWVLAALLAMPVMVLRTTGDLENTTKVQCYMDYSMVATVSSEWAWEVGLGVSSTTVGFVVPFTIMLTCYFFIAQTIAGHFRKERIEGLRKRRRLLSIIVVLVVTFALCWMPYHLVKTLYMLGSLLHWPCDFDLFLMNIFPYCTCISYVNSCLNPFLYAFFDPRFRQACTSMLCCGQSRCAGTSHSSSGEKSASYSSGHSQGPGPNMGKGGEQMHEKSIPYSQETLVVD
In words: Intracellular cAMP accumulation assay (APJ hcAMP, HTRF). It is filed as cell-based. As to conditions: HEK293 cells stably expressing human APJ receptor; inhibition of forskolin-mediated cAMP production; Table 1; read-out: hAPJ cAMP EC50 Potency range. In outline:
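Inhibition of forskolin (2 μM)-driven cAMP, with […], measured by HTRF after 30 min room-temperature compound exposure of stably transfected HEK293 cells. cAMP read from a standard curve; variable-slope fit gives EC50, and maximal inhibition is normalised to (Pyr1)apelin-13 as 100%.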
Turning to `CCCCc1nc(O)c(S(=O)(=O)c2ccc(-c3ccc(F)nc3C)cc2)c(O)c1N(C)c1ccc(OC)cc1` [Example 032, 6-butyl-3-((4-(6-fluoro-2-methylpyridin-3-yl)phenyl)sulfonyl)-5-((4-methoxyphenyl)(methyl)amino)pyridine-2,4-diol], the EC50 was in the range of 10 to 100 nM. In the case of `CCN(c1cccc(C#N)c1)c1c(-c2ccn(C)n2)nc(O)c(S(=O)(=O)c2ccc(-c3ccnc(F)c3C)cc2)c1O` [Example 211, 3-(ethyl(5-((4-(2-fluoro-3-methylpyridin-4-yl)phenyl)sulfonyl)-4,6-dihydroxy-2-(1-methyl-1H-pyrazol-3-yl)pyridin-3-yl)amino)benzonitrile], the EC50 was in the range of 0.01 to 10 nM. The same measure, in the same setting: to `CCN(c1ccccc1)c1c(-c2cnc(C)s2)nc(O)c(S(=O)(=O)c2ccc(-c3ccccc3C(=O)NC3CC3)cc2)c1O` [Example 189, N-cyclopropyl-4′-((5-(ethyl(phenyl)amino)-2,4-dihydroxy-6-(2-methylthiazol-5-yl)pyridin-3-yl)sulfonyl)-[1,1′-biphenyl]-2-carboxamide] belongs 0.01 to 10 nM. Still for that read-out and setting: to `Cc1ncccc1-c1ccc(S(=O)(=O)c2c(O)nc(-c3ccn(C)n3)c(N(c3ccccc3)C(C)C)c2O)cc1` [Example 165, 5-(iso-propyl(phenyl)amino)-6-(1-methyl-1H-pyrazol-3-yl)-3-((4-(2-methylpyridin-3-yl)phenyl)sulfonyl)pyri-dine-2,4-diol] belongs 0.01 to 10 nM; to `CNC(=O)c1cccc(-c2ccc(S(=O)(=O)c3c(O)nc(-c4ccn(C)n4)c(N(c4ccccc4)C(C)C)c3O)cc2)c1` [Example 163, 4′-((2,4-dihydroxy-5-(isopropyl(phen-yl)amino)-6-(1-methyl-1H-pyrazol-3-yl)pyridin-3-yl)sulfonyl)-N-methyl-[1,1′-biphenyl]-3-carboxamide], 0.01 to 10 nM. The same measure, in the same setting: to `CCCCc1nc(O)c(S(=O)(=O)c2ccc(C3CC3)cc2)c(O)c1N(C)c1ccc(C)cc1` [Example 100, 6-butyl-3-((4-cyclopropylphenyl)sulfonyl)-5-(methyl(p-tolyl)amino)pyridine-2,4-diol] belongs 10 to 100 nM; to `CCCCc1nc(O)c(S(=O)(=O)c2ccc(-c3ccncc3C)cc2)c(O)c1N(C)c1cccc(F)c1` [Example 104, 6-butyl-5-((3-fluorophenyl)(methyl)amino)-3-((4-(3-methylpyridin-4-yl)phenyl)sulfonyl)pyridine-2,4-diol], 0.01 to 10 nM; to `CCN(c1ccccc1)c1c(CC2CC2)nc(O)c(S(=O)(=O)c2ccc(-c3ccccc3C(N)=O)cc2)c1O` [Example 147, 4′-((6-(cyclopropylmethyl)-5-(ethyl(phenyl)amino)-2,4-dihydroxypyridin-3-yl)sulfonyl)-[1,1′-biphenyl]-2-carboxamide], 0.01 to 10 nM. For `CCCCc1nc(O)c(S(=O)(=O)c2ccc(-c3cccnc3C)cc2)c(O)c1N(C)c1ccc(Cl)cc1` [Example 111, 6-butyl-5-((4-chlorophenyl)(methyl)amino)-3-((4-(2-methylpyridin-3-yl)phenyl)sulfonyl)pyridine-2,4-diol], the EC50 was 0.01 to 10 nM. In the case of `CCN(c1ccccc1)c1c(-c2ccn(C)n2)nc(O)c(S(=O)(=O)c2ccc(-c3ccccc3C(N)=O)cc2)c1O` [Example 148, 4′-((5-(ethyl(phenyl)amino)-2,4-dihydroxy-6-(1-methyl-1H-pyrazol-3-yl)pyridin-3-yl)sulfonyl)-[1,1′-biphenyl]-2-carboxamide], the EC50 is 0.01 to 10 nM. As for `CCCCc1nc(O)c(S(=O)(=O)c2ccc(-c3ccccc3C(=O)N(C)C)cc2)c(O)c1N(C)c1ccccc1C` [Example 196, 4′-((6-butyl-2,4-dihydroxy-5-(methyl(o-tolyl)amino)pyridin-3-yl)sulfonyl)-N,N-dimethyl-[1,1′-biphenyl]-2-carboxamide], the EC50 is 0.01 to 10 nM. As for `CCCCc1nc(O)c(S(=O)(=O)c2ccc(-c3ccnc(F)c3C)cc2)c(O)c1N1c2ccccc2CCC1C` (centres unmarked) [167-I, 6-butyl-3-((4-(2-fluoro-3-methylpyridin-4-yl)phenyl)sulfonyl)-5-(2-methyl-3,4-dihydroquinolin-1(2H)-yl)pyridine-2,4-diol], the EC50 was in the range of 0.01 to 10 nM.

In the case of `CCCCc1nc(O)c(S(=O)(=O)c2ccc(-c3ccccc3C(=O)N(C)C)cc2)c(O)c1N(C)c1cccc(C#N)c1` [Example 139, 4′-((6-butyl-5-((3-cyanophenyl)(methyl)amino)-2,4-dihydroxypyridin-3-yl)sulfonyl)-N,N-dimethyl-[1,1′-biphenyl]-2-carboxamide], the EC50 was 0.01 to 10 nM. On the same count and under the same terms, the same measure for `CCCCc1nc(O)c(S(=O)(=O)c2ccc(-c3ccccc3C(=O)NC)cc2)c(O)c1N1CCCOc2ccccc21` [Example 146, 4′-((6-butyl-5-(3,4-dihydrobenzo[b][1,4]oxazepin-5(2H)-yl)-2,4-dihydroxypyridin-3-yl)sulfonyl)-N-methyl-[1,1′-biphenyl]-2-carboxamide]: 0.01 to 10 nM. As for `CCCCc1nc(O)c(S(=O)(=O)c2ccc(-c3ccnc(F)c3C)cc2)c(O)c1N(c1ccccc1)C(C)C` [Example 020], the EC50 was 0.01 to 10 nM. Take `CCN(c1cccc(C#N)c1)c1c(-c2ccn(C)n2)nc(O)c(S(=O)(=O)c2ccc(-c3cccc(F)c3C(N)=O)cc2)c1O` [Example 215, 4′-((5-((3-cyanophenyl)(ethyl)ami-no)-2,4-dihydroxy-6-(1-methyl-1H-pyrazol-3-yl)pyridin-3-yl)sulfonyl)-3-fluoro-[1,1′-biphenyl]-2-carboxamide]: the EC50 was 0.01 to 10 nM. Consider `CCCCc1nc(O)c(S(=O)(=O)c2ccc(-c3ccc(F)nc3C)cc2)c(O)c1N1CCCCC1c1ccccc1` (centres unmarked) [Example 126, 6-butyl-3-((4-(6-fluoro-2-methylpyridin-3-yl)phenyl)sulfonyl)-5-(2-phenylpiperidin-1-yl)pyridine-2,4-diol], for which the EC50 lay in the range of 10 to 100 nM.

With `Cc1c(-c2ccc(S(=O)(=O)c3c(O)nc(-c4ccn(C)n4)c(N(c4ccccc4)C(C)C)c3O)cc2)ccnc1F` [Example 164, 3-((4-(2-fluoro-3-methylpyridin-4-yl)phenyl)sulfonyl)-5-(isopropyl(phen-yl)amino)-6-(1-methyl-1H-pyrazol-3-yl)pyridine-2,4-diol], the EC50 fell in the range of 0.01 to 10 nM. The same measure, in the same setting: to `CCCCc1nc(O)c(S(=O)(=O)c2ccc(-c3cccnc3C)cc2)c(O)c1N(C)c1ccccc1F` [Example 124, 6-butyl-5-((2-fluorophenyl)(methyl)amino)-3-((4-(2-methylpyridin-3-yl)phenyl)sulfonyl)pyridine-2,4-diol] belongs 0.01 to 10 nM; to `CCN(c1ccccc1)c1c(-c2cnn(C)c2)nc(O)c(S(=O)(=O)c2ccc(-c3ccc(F)cc3C(N)=O)cc2)c1O` [Example 155, 4′-((5-(ethyl(phenyl)amino)-2,4-dihydroxy-6-(1-methyl-1H-pyrazol-4-yl)pyridin-3-yl)sulfonyl)-4-fluoro-[1,1′-biphenyl]-2-carboxamide], 0.01 to 10 nM; to `CCCCc1nc(O)c(S(=O)(=O)c2ccc(-c3cccnc3C)cc2)c(O)c1N1CCC(C)c2ccccc21` (centres unmarked) [Example 042], 10 to 100 nM. For `CCCCc1nc(O)c(S(=O)(=O)c2ccc(-c3cccnc3C)cc2)c(O)c1N(CC)c1cc(C)cc(C)c1` [Example 183, 6-butyl-5-((3,5-di-methylphenyl)(ethyl)a-mino)-3-((4-(2-methylpyridin-3-yl)phenyl)sulfonyl)pyri-dine-2,4-diol], the EC50 was in the range of 10 to 100 nM.

Still in this assay, the particulars now being: HEK293 cells stably expressing human APJ receptor; inhibition of forskolin-mediated cAMP production; Table 2; read-out: hAPJ cAMP EC50 Potency range.
Turning to `CCN(c1ccccc1)c1c(-c2ccn(C)n2)nc(O)c(C(=O)N2CCC(c3ccccc3F)C2)c1O` (centres unmarked) [Example 202, (5-(ethyl(phenyl)amino)-2,4-dihydroxy-6-(1-methyl-1H-pyrazol-3-yl)pyridin-3-yl)(3-(2-fluorophenyl)pyrrolidin-1-yl)methanone], the EC50 fell in the range of 0.01 to 10 nM.

The same assay, now with this note: HEK293 cells stably expressing human APJ receptor; inhibition of forskolin-mediated cAMP production; read-out: Human APJ cAMP Potency range.
For `CCN(c1ccccc1)c1c(-c2ccn(C)n2)nc(O)c(C(=O)N2CCC(c3ccc(Cl)cn3)C2)c1O` (single isomer, unassigned) [Example 199, (3-(5-chloropyridin-2-yl)pyrrolidin-1-yl)(5-(ethyl(phenyl)amino)-2,4-dihydroxy-6-(1-methyl-1H-pyrazol-3-yl)pyridin-3-yl)methanone], the EC50 fell in the range of 0.01 to 10 nM.

The same assay, now with this note: hAPJ cAMP EC50 Potency range, HEK293 cells stably expressing human APJ receptor; inhibition of forskolin-mediated cAMP production; Table 1.
On to `CCCCc1nc(O)c(C(=O)N2CCC(c3ccc(Cl)cn3)C2)c(O)c1N(CC)c1ccccc1` (centres unmarked) [Example 076, (6-butyl-5-(ethyl(phenyl)amino)-2,4-dihydroxypyridin-3-yl)(3-(5-chloropyridin-2-yl)pyrrolidin-1-yl)methanone], for which the EC50 fell in the range of 10 to 100 nM.

The same assay, now with this note: read-out: hAPJ cAMP EC50 Potency range; HEK293 cells stably expressing human APJ receptor; inhibition of forskolin-mediated cAMP production; Table 1.
Take `CCN(c1ccccc1)c1c(-c2cccc(C)c2)nc(O)c(C(=O)N2CCC(c3ncc(F)cc3F)C2)c1O` (centres unmarked) [Example 132, (3-(3,5-difluoropyridin-2-yl)pyrrolidin-1-yl)(5-(ethyl(phenyl)amino)-2,4-dihydroxy-6-(m-tolyl)pyridin-3-yl)methanone]: the EC50 was in the range of 0.01 to 10 nM.

(Values after patent US10669258B2, “3-sulfonyl-5-aminopyridine-2,4-diol APJ agonists” (BRISTOL-MYERS SQUIBB COMPANY, priority 2016, dated 2020).)
